Test results reported in US4990497A, “Antifungal antibiotics” (priority 1989, dated 1991).
Converted amounts (≈) assume the structure as drawn. “Also recorded” adds a separate entry of the source. Like-named read-outs stand apart in the source and are kept apart here.

Legend:
Aspergillus fumigatus [1] = test: Antifungal MIC, serial agar dilution (Sabouraud dextrose agar), Aspergillus fumigatus; format: cell-based
Sporothrix schenckii = test: Antifungal MIC, serial agar dilution (Sabouraud dextrose agar), Sporothrix schenckii; format: cell-based
Candida albicans [2] = test: Antifungal MIC, broth dilution (Sabouraud dextrose broth), Candida albicans
Experimental: (§1) The minimum inhibitory concentrations (MICs) against various fungi were determined by serial agar and broth dilution methods using Sabouraud dextrose agar and broth. The inoculum size of the test organism was adjusted to 10^5 CFUs/ml (BU-3608) or 10^5 -10^9 CFUs/ml (BU-3608 B and C) in the agar dilution method, and 10^4 -10^5 CFUs/ml (BU-3608) or 10^4 -10^6 CFUs/ml (BU-3608 B and C) in the broth dilution method.
(§2) ^(1) Determined after incubation for 72 hours at 28° C.
(§3) ^(2) Inoculum size: 10^5 CFU/ml for agar dilution and 10^4
-10^5 CFU/ml for broth dilution.
(§4) ^(3) Values in parenthesis indicate partial inhibition.
(§5) *Determined after incubation for 48-72 hours at 28° C.
(§6) **Inoculum size : 10^4 -10^6 CFU/ml for broth dilution and
10^5 -10^9 CFU/ml for agar dilution.
(§7) Values in parenthesis indicate partial inhibition.

Fusarium moniliforme = test: Antifungal MIC, serial agar dilution (Sabouraud dextrose agar), Fusarium moniliforme; format: cell-based; settings: Fusarium verticillioides
Aspergillus fumigatus [3] = test: Antifungal MIC, broth dilution (Sabouraud dextrose broth), Aspergillus fumigatus
Experimental: as §1, §2, §3
-10^5 CFU/ml for broth dilution.
as §4, §5, §6
10^5 -10^9 CFU/ml for agar dilution.
as §7

Cryptococcus neoformans [4] = test: Antifungal MIC, serial agar dilution (Sabouraud dextrose agar), Cryptococcus neoformans; format: cell-based
Candida albicans [5] = test: Antifungal MIC, serial agar dilution (Sabouraud dextrose agar), Candida albicans; format: cell-based
[6] = test system: Trichophyton mentagrophytes; test: Antifungal MIC, broth dilution (Sabouraud dextrose broth), Trichophyton mentagrophytes
Experimental: as §1, §2, §3
-10^5 CFU/ml for broth dilution.
as §4, §5, §6
10^5 -10^9 CFU/ml for agar dilution.
as §7

[7] = test system: Trichophyton mentagrophytes; test: Antifungal MIC, serial agar dilution (Sabouraud dextrose agar), Trichophyton mentagrophytes; format: cell-based
Piricularia oryzae = test: microbe, parasite or virus in culture; format: cell-based
Cryptococcus neoformans [8] = test: Antifungal MIC, broth dilution (Sabouraud dextrose broth), Cryptococcus neoformans
Experimental: as §1, §2, §3
-10^5 CFU/ml for broth dilution.
as §4, §5, §6
10^5 -10^9 CFU/ml for agar dilution.
as §7

in vitro [9] = settings: dog, mdck
influenza virus A = test: Cytopathic effect (CPE) reduction assay, influenza virus A in MDCK cells; format: cell-based; settings: unidentified influenza virus, 72 h, read-out: ID50 (CPE reduction)
Candida albicans A9540 = test: In vivo antifungal activity, Candida albicans intravenous infection in mice; parameters: species or system mice (male ICR); settings: for ED50: Candida albicans, read-out: PD50; for Number of survivors/tested: iv just after challenge
Experimental: The methyl and ethyl esters of BU-3608 were also evaluated against C. albicans A9540 infections in mice using the protocol described above. […] It is postulated that these esters are hydrolyzed in vivo to provide the active parent compound.

[10] = test system: Cryptococcus neoformans IAM 4514; test: In vivo antifungal activity, Cryptococcus neoformans intravenous infection in mice; settings: IAM4514, in Mus musculus, im, 480 h, read-out: PD50
Experimental: In vivo activities of BU-3608, BU-3608 B, and BU-3608 C were tested against Candida albicans, Aspergillus fumigatus, and Cryptococcus neoformans infections in mice. Test organisms were cultured for 18 hours at 28° C. in YGP medium (yeast extract, glucose, peptone, K2 HPO4, MgSO4) and then suspended in saline. Male ICR mice weighing 20 to 24 g were infected intravenously with about 20 times (BU-3608) or 10 times (BU-3608 B and C) the median lethal dose of the test fungi. The antibiotics at various dose levels were administered to groups of 5 mice each either intravenously just after the fungal infection or intramuscularly twice a day on days 0 and 1. The dose that protects 50% of the animals from infection (PD50, mg/kg) was calculated from survival rates recorded on the 20th day after the fungal challenge.
**Compounds were administered im b.i.d. on days 0 and 1.

Solubility = format: physicochemical; settings: free form
Aspergillus flavus = test: Antifungal MIC, serial agar dilution (Sabouraud dextrose agar), Aspergillus flavus; settings: 72 h
Experimental: as §1, §2

Acute toxicity in mice = format: in vivo
Experimental: The acute toxicity of BU-3608 was determined in mice after single intravenous and intramuscular administrations.

Petriellidium boydii = test: Antifungal MIC, serial agar dilution (Sabouraud dextrose agar), Petriellidium boydii; settings: Scedosporium boydii, IFO8073, 72 h
Experimental: as §1, §2

Mucor spinosus = test: Antifungal MIC, serial agar dilution (Sabouraud dextrose agar), Mucor spinosus; settings: IFO5317, 72 h
Experimental: as §1, §2

Blastomyces dermatitidis = test: Antifungal MIC, serial agar dilution (Sabouraud dextrose agar), Blastomyces dermatitidis; settings: 72 h
Experimental: as §1, §2

in vitro [11] = settings: monkey, vero cells
[12] = Aspergillus fumigatus IAM2034, 48-72 h at 28° C., 10^5-10^9 CFU/ml
[13] = Aspergillus fumigatus IAM2530, 48-72 h at 28° C., 10^5-10^9 CFU/ml
[14] = Sporothrix schenckii IFO8158, 48-72 h at 28° C., 10^5-10^9 CFU/ml
[15] = read-out: MIC, partial inhibition (value in parenthesis)
[16] = Fusarium moniliforme A2284, 48-72 h at 28° C., 10^5-10^9 CFU/ml
[17] = IAM2034, read-out: MIC, partial inhibition (value in parenthesis)
[18] = Cryptococcus neoformans D49, 48-72 h at 28° C., 10^5-10^9 CFU/ml
[19] = Cryptococcus neoformans IAM4514, 48-72 h at 28° C., 10^5-10^9 CFU/ml
[20] = Candida albicans A9540, 48-72 h at 28° C., 10^5-10^9 CFU/ml
[21] = Candida albicans IAM4888, 48-72 h at 28° C., 10^5-10^9 CFU/ml
[22] = Trichophyton mentagrophytes #4329, 48-72 h at 28° C., 10^5-10^9 CFU/ml
[23] = Trichophyton mentagrophytes D155, 48-72 h at 28° C., 10^5-10^9 CFU/ml
[24] = dose 3.1 mg/kg/inj., day 20, challenge 20x (BU-3608) or 10x (B, C) median lethal dose
[25] = dose 6.3 mg/kg/inj., day 20, challenge 20x (BU-3608) or 10x (B, C) median lethal dose
[26] = dose 12.5 mg/kg/inj., day 20, challenge 20x (BU-3608) or 10x (B, C) median lethal dose
[27] = dose 25 mg/kg/inj., day 20, challenge 20x (BU-3608) or 10x (B, C) median lethal dose
[28] = dose 50 mg/kg/inj., day 20, challenge 20x (BU-3608) or 10x (B, C) median lethal dose

SMILES: COc1cc(O)c2c(c1)C(=O)c1c(cc3c(c1O)-c1c(cc(C)c(C(=O)N[C@H](C)C(=O)O)c1O)C(O[C@@H]1O[C@H](C)[C@H](N)[C@H](O[C@@H]4OC[C@@H](O)[C@H](O)[C@H]4O)[C@H]1O)C3O)C2=O (stereo partly shown)
- MIC (Aspergillus fumigatus [1]; [12]): 6.3 mg/L (≈ 7.62 µM)
- MIC (Aspergillus fumigatus [1]; [13]): 3.1 mg/L (≈ 3.75 µM)
- MIC (Sporothrix schenckii; [14]): 1.6 mg/L (≈ 1.94 µM)
- MIC (Candida albicans [2]): 6.3 mg/L (≈ 7.62 µM)
- MIC (Candida albicans [2]; [15]): 3.1 mg/L (≈ 3.75 µM)
- MIC (Fusarium moniliforme; [16]): 6.3 mg/L (≈ 7.62 µM)
- MIC (Aspergillus fumigatus [3]; IAM2034): 6.3 mg/L (≈ 7.62 µM)
- MIC (Aspergillus fumigatus [3]; [17]): 3.1 mg/L (≈ 3.75 µM)
- MIC (Cryptococcus neoformans [4]; [18]): 0.8 mg/L (≈ 0.968 µM)
- MIC (Cryptococcus neoformans [4]; [19]): 0.8 mg/L (≈ 0.968 µM)
- MIC (Candida albicans [5]; [20]): 6.3 mg/L (≈ 7.62 µM)
- MIC (Candida albicans [5]; [21]): 6.3 mg/L (≈ 7.62 µM)
- MIC [6]: 6.3 mg/L (≈ 7.62 µM)
- MIC [6, 15]: 1.3 mg/L (≈ 1.57 µM)
- MIC [7, 22]: 6.3 mg/L (≈ 7.62 µM)
- MIC [7, 23]: 3.1 mg/L (≈ 3.75 µM)
- MIC (Piricularia oryzae): 3.1 mg/L (≈ 3.75 µM)

SMILES: CN[C@@H]1[C@H](O)[C@@H](O)[C@H](OC2c3cc(C)c(C(=O)N[C@H](C)C(=O)O)c(O)c3-c3c(cc4c(c3O)C(=O)c3cc(OC)cc(O)c3C4=O)C2O)O[C@@H]1C (stereo partly shown) [BU-3608 B]
- MIC (Aspergillus fumigatus [1]; [12]): 6.3 mg/L (≈ 8.89 µM)
- MIC (Aspergillus fumigatus [1]; [13]): 6.3 mg/L (≈ 8.89 µM)
- MIC (Sporothrix schenckii; [14]): 3.1 mg/L (≈ 4.37 µM)
- MIC (Cryptococcus neoformans [8]; IAM4514): 1.6 mg/L (≈ 2.26 µM)
- MIC (Candida albicans [2]): 3.1 mg/L (≈ 4.37 µM)
- MIC (Candida albicans [2]; [15]): 3.1 mg/L (≈ 4.37 µM)
- MIC (Fusarium moniliforme; [16]): > 100 mg/L
- MIC (Aspergillus fumigatus [3]; IAM2034): 50 mg/L (≈ 70.6 µM)
- MIC (Aspergillus fumigatus [3]; [17]): 12.5 mg/L (≈ 17.6 µM)
- CC50 at 72 h (in vitro [9]): > 100 mg/L
- MIC (Cryptococcus neoformans [4]; [18]): 0.8 mg/L (≈ 1.13 µM)
- MIC (Cryptococcus neoformans [4]; [19]): 0.8 mg/L (≈ 1.13 µM)
- MIC (Candida albicans [5]; [20]): 3.1 mg/L (≈ 4.37 µM)
- MIC (Candida albicans [5]; [21]): 1.6 mg/L (≈ 2.26 µM)
- MIC [6]: 6.3 mg/L (≈ 8.89 µM)
- MIC [6, 15]: 3.1 mg/L (≈ 4.37 µM)
- IC50 (influenza virus A): 8.4 mg/L (≈ 11.9 µM)
- ED50 (Candida albicans A9540; A9540, im, 480 h): 22 mg/kg
- ED50 (Candida albicans A9540; A9540, iv, 480 h): 11 mg/kg
- Number of survivors/tested (Candida albicans A9540; [24]): 0/5
- Number of survivors/tested (Candida albicans A9540; [25]): 0/5
- Number of survivors/tested (Candida albicans A9540; [26]): 3/5
- Number of survivors/tested (Candida albicans A9540; [27]): 3/5
- Number of survivors/tested (Candida albicans A9540; [28]): 4/5
- MIC [7, 22]: 6.3 mg/L (≈ 8.89 µM)
- MIC [7, 23]: 6.3 mg/L (≈ 8.89 µM)
- ED50 [10]: 11 mg/kg
- MIC (Piricularia oryzae; 48-72 h at 28° C., read-out: MIC): 6.3 mg/L (≈ 8.89 µM)

SMILES: CN[C@@H]1[C@H](O[C@@H]2OC[C@@H](O)[C@H](O)[C@H]2O)[C@@H](O)[C@H](OC2c3cc(C)c(C(=O)N[C@H](C)C(=O)O)c(O)c3-c3c(cc4c(c3O)C(=O)c3cc(OC)cc(O)c3C4=O)C2O)O[C@@H]1C (stereo partly shown) [BU-3608]
- MIC (Aspergillus fumigatus [1]; Aspergillus fumigatus IAM2034, 72 h at 28° C., 10^5 CFU/ml): 3.1 mg/L (≈ 3.69 µM)
- MIC (Aspergillus fumigatus [1]; Aspergillus fumigatus IAM2530, 72 h at 28° C., 10^5 CFU/ml): 3.1 mg/L (≈ 3.69 µM)
- Solubility (Solubility): Soluble in dimethyl sulfoxide, dimethyl formamide, acidic and alkaline water; also recorded: Slightly soluble in water, methanol, and ethanol; also recorded: Insoluble in ethyl acetate, chloroform, benzene, n-hexane, and petroleum ether
- MIC (Sporothrix schenckii; Sporothrix schenckii IFO8158, 72 h at 28° C., 10^5 CFU/ml): 0.8 mg/L (≈ 0.951 µM)
- MIC (Cryptococcus neoformans [8]; IAM4514, 72 h): 0.4 mg/L (≈ 0.476 µM)
- MIC (Candida albicans [2]; 72 h): 6.3 mg/L (≈ 7.49 µM)
- MIC (Fusarium moniliforme; Fusarium moniliforme A2284, 72 h at 28° C., 10^5 CFU/ml): 3.1 mg/L (≈ 3.69 µM)
- MIC (Aspergillus flavus): 1.6 mg/L (≈ 1.9 µM)
- sign of toxicity (Acute toxicity in mice; mice, single im dose of 400 mg/kg): no sign of toxicity
- LD50 (Acute toxicity in mice; mouse, in vivo, iv): 140 mg/kg
- MIC (Aspergillus fumigatus [3]; IAM2034, 72 h): 12.5 mg/L (≈ 14.9 µM)
- CC50 at 72 h (in vitro [9]): > 100 mg/L
- MIC (Cryptococcus neoformans [4]; Cryptococcus neoformans D49, 72 h at 28° C., 10^5 CFU/ml): 0.8 mg/L (≈ 0.951 µM)
- MIC (Cryptococcus neoformans [4]; Cryptococcus neoformans IAM4514, 72 h at 28° C., 10^5 CFU/ml): 0.8 mg/L (≈ 0.951 µM)
- MIC (Petriellidium boydii): 100 mg/L (≈ 119 µM)
- MIC (Mucor spinosus): 50 mg/L (≈ 59.5 µM)
- MIC (Candida albicans [5]; Candida albicans A9540, 72 h at 28° C., 10^5 CFU/ml): 25 mg/L (≈ 29.7 µM)
- MIC (Candida albicans [5]; Candida albicans IAM4888, 72 h at 28° C., 10^5 CFU/ml): 25 mg/L (≈ 29.7 µM)
- MIC ([6]; 72 h): 25 mg/L (≈ 29.7 µM)
- MIC ([6]; 72 h, read-out: MIC, partial inhibition (value in parenthesis)): 6.3 mg/L (≈ 7.49 µM)
- IC50 (influenza virus A): 4.4 mg/L (≈ 5.23 µM)
- ED50 (Candida albicans A9540; A9540, 480 h, iv just after fungal challenge, day 20, challenge 20x (BU-3608) or 10x (B, C) median lethal dose): 7.2 mg/kg
- Number of survivors/tested (Candida albicans A9540; dose 1.6 mg/kg/inj., day 20, challenge 20x median lethal dose): 1/5
- Number of survivors/tested (Candida albicans A9540; [24]): 2/5
- Number of survivors/tested (Candida albicans A9540; [25]): 2/5
- Number of survivors/tested (Candida albicans A9540; [26]): 5/5
- Number of survivors/tested (Candida albicans A9540; [27]): 5/5
- Number of survivors/tested (Candida albicans A9540; [28]): 5/5
- MIC (Blastomyces dermatitidis): 6.3 mg/L (≈ 7.49 µM)
- MIC ([7]; 72 h, Trichophyton mentagrophytes #4329, 72 h at 28° C., 10^5 CFU/ml): 25 mg/L (≈ 29.7 µM)
- MIC ([7]; 72 h, Trichophyton mentagrophytes D155, 72 h at 28° C., 10^5 CFU/ml): > 100 mg/L
- ED50 [10]: 3.5 mg/kg
- CC50 at 72 h (in vitro [11]): > 100 mg/L
- MIC (Piricularia oryzae; 72 h): 3.1 mg/L (≈ 3.69 µM)
